Key:
NIH 3T3 fibroblasts = assay: Thymidine incorporation (mitogen potentiation), NIH 3T3; format: cell-based, mouse; conditions: bFGF 15 ng/ml or PDGF-BB 30 ng/ml
Description: More specifically, NIH 3T3 fibroblast cells were plated on 24-well plates at 3×10^4 cells/well and grown in DMEM with 10% fetal bovine serum (Intergen Co., Purchase, N.Y.) for 3-4 days and incubated with medium containing 0.2% FBS for the following 48 hours. The following compounds, at the parenthetically noted final concentrations, were then added to the plated cells in fresh DMEM containing 0.2% fbs and [^3H]-thymidine (1 μCi/ml final concentration; ICN Biomedicals, Inc., Costa Mesa, Calif.): bFGF (15 ng/ml), PDGF-BB (30 ng/ml), and murine Cyr61 (0.5-5 μg/ml). These compounds were added to individual plates according to the following pattern: 1) no supplementation; 2) murine Cyr61; 3) bFGF; 4) murine Cyr61 and bFGF; 5) PDGF-BB; and 6) murine Cyr61 and PDGF. After 18-20 hours of incubation, cells were washed with PBS and fixed with 10% trichloroacetic acid. DNA was dissolved in 0.1 N NaOH and thymidine incorporation was determined. […] Without any supplements, 3T3 cells incorporated approximately 1.8×10^4 cpm of [^3H]-thymidine, in the presence or absence of Cyr61. […]
DNA synthesis for HUVE cells and NIH 3T3 fibroblasts was measured by thymidine incorporation as described previously (Kireeva et al., [1996]) with minor modifications. […] Thymidine incorporation into the trichloroacetic acid-insoluble fraction was determined after 24 hour incubation. […]

[1] = test system: Human Microvascular Endothelial Cells; assay: Endothelial cell migration, inverted modified Boyden chamber; format: cell-based; conditions: 0.01-10 μg/ml
Description: In an alternative in vitro assay for angiogenic activity, an assay for endothelial cell migration was developed. […] Primary Human Microvascular Endothelial Cells (HMVEC PO51, Clonetics, San Diego, Calif.) were maintained in DME with 10% donor calf serum (Flow Laboratories, McLean, Va.) and 100 μg/ml endothelial celi mitogen (Biomedical Technologies Inc., Stoughton, Mass.). The cells were used between passages 10 and 15. To measure migration, cells were starved for 24 hours in DME containing 0.1% BSA, harvested, resuspended in DME with 0.1% BSA, and plated at 1.75×10^4 cells/well on the lower surface of a gelatinized 0.5 μm filter (Nucleopore Corporation, Pleasanton. Calif.) in an inverted modified Boyden chamber. After 1-2 hours at 37° C., during which time the cells were allowed to adhere to the filter, the chamber was reverted to its normal position. […] Chambers were disassembled, membranes fixed and stained, and the number of cells that had migrated to the top of the filter in 3 high-powered fields was determined. […]
To allow comparison of experiments performed on different days, migration data is reported as the percent of maximum migration towards the positive control, calculated after subtraction of background migration observed in the presence of DME plus BSA. […] Detachment was detected by counting cells on the lower face of the membrane. […]

[2] = test system: Human Microvascular Endothelial Cells; assay: In vitro migration assay for angiogenesis inhibitors; format: cell-based; conditions: bFGF 10 ng/ml; Cyr61; IGF-II
Description: As in the preceding Example, human microvascular endothelial cells (Clonetics) were used. In one series of assays, several carbohydrates and carbohydrate derivatives were analyzed. These compounds included 10 mM mannose, 10 mM mannose-6-phosphate, and 10 mM galactose. […] Cyr61 plus galactose induced the migration of approximately 74 cells per set of three high-powered fields. […] The angiogenic activity of basic FGF (10 ng/ml) was also tested, as described above, with and without mannose-6-phosphate. In the presence of 10 mM mannose-6-phosphate, bFGF induced 51 cells per set of three high-powered fields to migrate; in its absence, bFGF induced the migration of approximately 52 cells. […] The effect of mannose-6-phosphate on IGF II activity was anticipated because mannose-6-phosphate is known to compete with IGF II for their common receptor (the IGF II receptor). […] Moreover, because there is an essentially perfect correlation between the in vitro migration assay and the in vivo angiogenesis assay, described below, mannose-6-phosphate has been identified as an inhibitor of angiogenesis based on the results of the assay disclosed herein. Accordingly, the invention contemplates a method of inhibiting angiogenesis comprising the step of administering an inhibitor the angiogenic activity of Cyr61 such as mannose-6-phosphate. Assays such as that described above may also be used to screen for other inhibitors of angiogenesis which may be useful in the treatment of diseases associated with angiogenesis such as cancer, and diseases of the eye which are accompanied by neovascularization.

## bFGF: Growth factor used as positive control [reference compound]
NIH 3T3 fibroblasts
  [3H]-thymidine incorporation, growth factor alone: about 1.2×10^5 cpm
[1]
  migrated cells per three high-powered microscope fields: 92 cells
[2]
  migrating cells, chemoattractant without mannose-6-phosphate: approximately 52 cells

— US7521540B2, “CYR61 compositions and methods” (Munin Corporation, priority 1996, dated 2009)
